Results taken from article PMC11251039, “Harnessing cholesterol uptake of malaria parasites for therapeutic applications” (EMBO Molecular Medicine, 2024).
Values joined by “and” are separate entries in the source; they are usually repeats but may differ in a detail not shown here. Equal values may be shown once. Read-outs that look alike come from different tables or passages of the source.

How the values were obtained:
[1] = test system: P. falciparum CAM3.II ring stages (0–3 h post invasion); experiment: Plasmodium falciparum ring stage survival assay, resistant strain; format: cell-based; settings: for Ring stage survival, individual data points (Figure 4C): CAM3.11, replicate experiments
Description: (§1) Following tight synchronisation using sorbitol and Percoll® floatation, ring stage CAM3.II and CAM3.IIREV parasites (0–3 h post invasion) at 1% parasitaemia and 2% haematocrit were incubated with 700 nM of compounds or solvent-only controls for exactly 6 h, before removing the drug, thoroughly washing in RPMI with HEPES, and returning to culture conditions for a further 66 h. Some cells were treated with 700 nM artesunate for 72 h as a no-growth control. DNA replication (indicating growth) was measured at the specified time using SYBR Safe DNA Stain. Microscope slide smears of each condition were stained with 10% v/v Giemsa and examined under a light microscope (×1000 magnification); with ‘viable’ (morphologically normal) and ‘non-viable’ (morphologically aberrant; vacuolated or pyknotic) parasites distinguished according to standard protocol (Witkowski et al, [2013]). Images were captured using a Leica ICC50 camera, with a resolution of 76 nm per pixel, and cropped from larger images using Fiji ImageJ.
(§2) Appendix Fraser/Curtis et al.
(§3) Cells were detached from a flask using 0.25% Trypsin with 0.2 g/L EDTA (Sigma T4049) and washed with culture media containing no phenol red. Cells were incubated with a serial dilution of each compound, or media/DMSO alone. The protein synthesis inhibitor cycloheximide (Sigma 01810) at 10 µg/mL was used as a positive control to determine background absorbance. 5,000 cells were seeded in each well. After 96 hours, 0.45 mg/mL methylthiazolyldiphenyl-tetrazolium bromide (MTT; Sigma M2128) was added and incubated for a further two hours, before mixing 1.1:1 with 10% w/v sodium dodecyl sulfate (SDS) to solubilise crystals and freezing the plate at -18 °C to stop the assay. Plates were defrosted at room temperature and absorbance was read at 570 nm in an Infinite M1000 pro plate reader […]
(§4) Plasmodium falciparum Ring Stage Survival Assay
(§5) Ring stage survival assays were conducted according to standard protocols with some modifications (27, 28). CAM3.11 and CAM3.11REV parasites were sorbitol synchronised twice, 12 hours apart, and then incubated for a further 30 hours until the majority of the parasites were mature schizonts (with clearly separated nuclei). Pelleted RBCs were incubated at 37 °C with heparinised RPMI for 15 minutes, and then centrifuged over 75% Percoll® in PBS for 15 minutes at 1,000 g. Mature schizonts were collected, washed with warm RPMI, and cultured for exactly three hours with fresh uRBCs and culture media. After 3 hours, the cultures were sorbitol synchronised and incubated in duplicate with 700 nM of artesunate, PAYb076a, GGA5, HJB8a53, a DMSO solvent-only control or media alone for exactly six hours, before removing the drug, washing in RPMI, and returning to culture conditions. Samples of each cell suspension were transferred to a -18 °C freezer at the start of the assay (time = 0) or treated for the entire 72 hours with 700 nM artesunate to determine background fluorescence under no-growth conditions. After a further 66 hours of incubation (totalling 72 hours), cells were […]
(§6) resuspended, and a sample from each well was transferred to a fresh plate and frozen at -18 °C.
(§7) Microscope slide smears were made using the remaining cells and stained with 10% v/v Giemsa. Plates were thawed and SYBR Safe DNA Gel Stain (final concentration 1/10,000) diluted in lysis buffer (as above) was added for DNA detection at 490 nm excitation / 520 nm emission on a FLUOstar Optima fluorescence plate reader. Parasite proliferation and viability were also assessed using Giemsa-stained smears examined under a light microscope (1,000× magnification); with ‘viable’ and ‘non-viable’ (vacuolated or pyknotic) parasites distinguished according to standard protocol. Images were captured using a Leica ICC50 camera, with a resolution of 76 nm per pixel.
(§8) Growth inhibition data were normalised by subtracting background fluorescence, […]

[2] = test system: P. falciparum CAM3.IIREV ring stages (0–3 h post invasion); experiment: Plasmodium falciparum ring stage survival assay, susceptible revertant strain; format: cell-based; settings: for Parasite morphology in Giemsa-stained smears: 700 nM, 6 h treatment, 66 h further growth, CAM3.IIREV susceptible; for Ring stage survival, individual data points (Figure 4C): CAM3.11REV, replicate experiments
Description: as §1, §2, §3, §4, §5, §6, §7, §8

[3] = test system: asexual P. falciparum 3D7 wild-type parasites; experiment: P. falciparum asexual growth inhibition assay (SYBR Safe DNA replication); format: cell-based, Plasmodium falciparum; design: Figure 5B dose-response source data (growth, replicate values): unit not given here; settings: for IC50: 72 h, read-out: IC50, P. falciparum asexual growth inhibition; for Figure 5B dose-response source data (growth, replicate values): individual replicates
Description: P. falciparum asexual parasite assays commenced with ring-stage parasites at 1% parasitaemia and 1% haematocrit. 200 nM chloroquine (Sigma C6628) or artesunate (Sigma A3731) was used as a no-growth control. DNA replication (indicating growth) was measured at the specified time using SYBR Safe DNA Gel Stain (Invitrogen 33102) and a fluorescence microplate reader (Smilkstein et al, [2004]; Spry et al, [2013]). […]
(§9) Growth and Viability Inhibition Assays:
(§10) Plasmodium falciparum Growth Inhibition Assays:
(§11) P. falciparum parasites were maintained under routine culture conditions in red blood cells and RPMI 1640-Hepes with Glutamax, supplemented with 10 mM D-glucose, 480 μM hypoxanthine, 20 μg/mL gentamicin, 0.375% (w/v) AlbuMAXTM II (Thermo Fisher 11021029), and 2.5% v/v heat-inactivated human serum (17). Cultures were maintained at 37 °C […]
wildtype parasites except for the ring stage survival assay, as specified. Cultures were synchronised with 5% w/v D-sorbitol (18).
Growth inhibition was investigated according to methods described by Smilkstein et al. (19) with modifications by Spry et al. (20). Compounds or solvent controls (DMSO, ethanol, or ethyl acetate) were serially diluted 2-fold across flat-bottom 96-well plates. Culture media without compound was used as a negative control. 200 nM chloroquine (Sigma C6628) or artesunate (Sigma A3731) was used as a positive control to determine background fluorescence. The parasitaemia of a culture containing predominantly ring stage parasites was counted by Giemsa smear. The parasitaemia was adjusted to 1% by addition of fresh uRBCs and added to the plate at a final haematocrit of 1%, with 200 µL per well. The plates were incubated at 37 °C under humid microaerophilic conditions. After 24, 48, or 72 hours, the plates were transferred to a -18 °C freezer to stop the assay and lyse cells. Plates were thawed and lysate was mixed 1:1 with SYBR Safe DNA Gel Stain (Invitrogen 33102) (final concentration 1/10,000) diluted in lysis buffer (20 mM TRIS, 5 mM EDTA, 0.008% w/v Saponin, 0.08% w/v Triton-X 100, pH 7.5). Fluorescence was detected at 490 nm excitation/ 520 nm emission on a FLUOstar Optima fluorescence plate reader (BMG Labtech).

[4] = test system: asexual P. falciparum CAM3.II (Resistant); experiment: P. falciparum asexual growth inhibition assay, resistant strain; format: cell-based; settings: Plasmodium falciparum, 72 h, read-out: IC50, P. falciparum asexual growth inhibition
Description: (§12) P. falciparum asexual parasite assays commenced with ring-stage parasites at 1% parasitaemia and 1% haematocrit. 200 nM chloroquine (Sigma C6628) or artesunate (Sigma A3731) was used as a no-growth control. DNA replication (indicating growth) was measured at the specified time using SYBR Safe DNA Gel Stain (Invitrogen 33102) and a fluorescence microplate reader (Smilkstein et al, [2004]; Spry et al, [2013]).
as §2, §9, §10, §11
(§13) Growth inhibition was investigated according to methods described by Smilkstein et al. (19) with modifications by Spry et al. (20). […] 200 nM chloroquine (Sigma C6628) or artesunate (Sigma A3731) was used as a positive control to determine background fluorescence. The parasitaemia of a culture containing predominantly ring stage parasites was counted by Giemsa smear. […] Fluorescence was detected at 490 nm excitation/ 520 nm emission on a FLUOstar Optima fluorescence plate reader (BMG Labtech).

[5] = test system: asexual P. falciparum CAM3.IIREV (Susceptible); experiment: P. falciparum asexual growth inhibition assay, revertant strain; format: cell-based; settings: Plasmodium falciparum, 72 h, read-out: IC50, P. falciparum asexual growth inhibition
Description: as §12, §2, §9, §10, §11, §13

[6] = test system: human embryonic kidney cells (HEK293); experiment: Human embryonic kidney cell viability assay (MTT); format: cell-based; settings: 96 h, HEK293; read-out: IC50, human embryonic kidney cell inhibition (viability)
Description: HEK293 cell viability assays commenced with 5000 cells per well. 10 µg/mL cycloheximide was used as a no-growth control. Metabolic capacity (indicating viability) was measured in an absorbance microplate reader after incubation with 0.45 mg/mL methylthiazolyldiphenyl-tetrazolium bromide (MTT; Sigma M2128) for 2 h followed by crystal solubilisation in SDS. […]
Human Embryonic Kidney Cell Viability Assays:
Human Embryonic Kidney Cell (HEK293) culture:
The HEK293 cell line was maintained under routine culture conditions in DMEM containing 3.7 g/L NaHCO3 supplemented with 10% FBS, 200 μM glutamine, 100 units/mL penicillin, and 100 μg/mL streptomycin at 37 °C in a humidified 5% CO2 incubator.
as §3, with “assay.” for “assay. Plates were defrosted at room temperature and absorbance was read at 570 nm in an Infinite M1000 pro plate reader”

[7] = 700 nM, 6 h treatment, 66 h further growth, CAM3.II resistant

With CC(C)OC(=O)CCC(=O)OC1OC2OC3(C)CCC4C(C)CCC(C1C)C24OO3 (stereo not shown) [ART-link] the “Parasite morphology in Giemsa-stained smears” value (from here on “Parasite morphology”) [1, 7] was “a combination of morphologically normal parasites (green arrows) and morphologically aberrant pyknotic or vacuolated forms”, the “Ring stage survival, individual data points (Figure 4C)” value (“Ring stage survival … (Figure 4C)” below) ([1]; listed as GGA5) was 38.82 and -2.964 and -8.71 and 33.42 and the “Parasite morphology” value [2] was “only morphologically aberrant parasites were present”. The “Ring stage survival … (Figure 4C)” value ([2]; listed as GGA5) was -11.62 and -13.91 and -17.49 and -9.785.

With CC1CCC2C(C)C(OC(=O)CCC(=O)OC3CCC4C5CC=C6CC(O)CCC6(C)C5CCC34C)OC3OC4(C)CCC1C32OO4 (stereo not shown) [C-17-ART] the IC50 ([3]; Plasmodium falciparum, 3D7, 72 h, 3D7 (Susceptible)) was 10.6 nM, the IC50 [4] was 10.5 nM and the IC50 [5] was 11 nM. The “Parasite morphology” value [1, 7] was “only aberrant, non-viable parasites were visible”, the “Ring stage survival, growth” value [1, 7] was “complete growth inhibition” and the “Ring stage survival … (Figure 4C)” value ([1]; listed as PAYb076a) was 5.574 and -1.717 and 1.804 and -19.52. For the same compound, the “Parasite morphology” value [2] was “only morphologically aberrant parasites were present” and the “Ring stage survival … (Figure 4C)” value ([2]; listed as PAYb076a) was -3.583 and -11.02 and -24.87 and -14.11.

With CC(C)(C)OOC(C)(C)C [Di-tert-butyl peroxide, di-tert-butyl peroxide, reference compound] the IC50 [3] was over 25000 nM, the “Figure 5B dose-response source data (growth, replicate values)” value (from here on “Figure 5B dose-response source data”) ([3]; Concentration 0.039063 uM) was 85.18 and 102.4 and 102.7 and the “Figure 5B dose-response source data” value ([3]; Concentration 0.078125 uM) was 74.12 and 92.74 and 101.2. For the same compound, the “Figure 5B dose-response source data” value ([3]; Concentration 0.15625 uM) was 95.05 and 90.78 and 92.5 and 91.43 and 92.81 and 96.62 and 92.25 and 92.33 and 93.69, the “Figure 5B dose-response source data” value ([3]; Concentration 0.1953125 uM) was 104.7 and 100.3 and 94.44 and the “Figure 5B dose-response source data” value ([3]; Concentration 0.3125 uM) was 87.88 and 89.77 and 89.55 and 85.58 and 96.69 and 99.28 and 97.57 and 87.06 and 96.72. For the same compound, the “Figure 5B dose-response source data” value ([3]; Concentration 0.390625 uM) was 99.53 and 101.7 and 93.86, the “Figure 5B dose-response source data” value ([3]; Concentration 0.625 uM) was 89.02 and 90.9 and 80.19 and 84.44 and 92.83 and 101.4 and 93.27 and 93.75 and 89.82 and the “Figure 5B dose-response source data” value ([3]; Concentration 0.78125 uM) was 99.16 and 101.8 and 97.31. For the same compound, the “Figure 5B dose-response source data” value ([3]; Concentration 1.25 uM) was 89.1 and 88.53 and 87.02 and 94.06 and 87.75 and 98.34 and 95.66 and 89.13 and 92.05, the “Figure 5B dose-response source data” value ([3]; Concentration 1.5625 uM) was 96.44 and 101 and 94.23 and the “Figure 5B dose-response source data” value ([3]; Concentration 2.5 uM) was 90.99 and 88.19 and 94.1 and 84.35 and 90.32 and 96.8 and 92.38 and 90.3 and 90.14. The “Figure 5B dose-response source data” value ([3]; Concentration 3.125 uM) was 98.75 and 99.8 and 93.33, the “Figure 5B dose-response source data” value ([3]; Concentration 5 uM) was 88.2 and 86.72 and 93.06 and 89.82 and 70.14 and 95.75 and 93.09 and 90.02 and 87.03 and the “Figure 5B dose-response source data” value ([3]; Concentration 6.25 uM) was 99.66 and 102.1 and 96.08. The “Figure 5B dose-response source data” value ([3]; Concentration 10 uM) was 83.27 and 83.85 and 83.43 and 96.65 and 93.69 and 94.13 and 91.37 and 89.09 and 89.4, the “Figure 5B dose-response source data” value ([3]; Concentration 12.5 uM) was 105.9 and 89.05 and 98.44 and the “Figure 5B dose-response source data” value ([3]; Concentration 25 uM) was 103.6 and 101.6 and 94.82. It also gave an IC50 [6] of over 100 µM.
